US20110117106A1, “USES OF CALPAIN INHIBITORS TO INHIBIT INFLAMMATION” (priority 2008, published 2011)
“Also recorded” adds a separate entry of the source.

Tests used:
[1] = test system: PMN transmigration across 16HBE airway epithelial monolayers; test: PMN transmigration across polarized 16HBE monolayers (myeloperoxidase readout); type: cell-based, human; conditions: 20 μM calpeptin
Source text: Human PMNs were isolated according to standard techniques from venous blood from healthy consenting adults in accordance with a protocol approved by the Institutional Review Board of Human Subjects at Columbia University (IRB-AAAC5450). PMNs were isolated using dextran sedimentation and Hypaque-Ficoll (Sigma) density-gradient separation, followed by hypotonic lysis of erythrocytes as previously described (Boyum et al, 1968). Purified PMNs were resuspended in HBSS with Ca^2+ and Mg^2+ before use in migration experiments. Migration assays were performed across 16HBE monolayers plated on the underside of 3 μm transwells which were coated with minimal essential media containing 0.01 mg/ml fibronectin, 0.03 mg/ml bovine collagen type I, 0.1 mg/ml BSA. After allowing the cells to adhere overnight, transwells were flipped over and inserted into 24-well plates. 500 μl of media was added to the lower chamber (apical surface of the cell) and 100 μl of media added to the transwell (basolateral surface of the cell). When the cells became confluent, they were polarized with an air liquid interface for 5 days by removing the 500 μl of media in the lower chamber. Selected wells were preincubated for 30 min with 20 μM calpeptin in the apical and basolateral chambers. Monolayers were stimulated with 250 μl heat killed PAO1 (10^7 CFU) or […] […]

[2] = test system: PMNs; test: PMN migration across a porous Transwell without epithelial cells; type: cell-based, human; design: dose or concentration left out as unconfirmed; conditions: in response to live PAO1, heat-killed PAO1 or fMLP
[3] = molecular target: T1, recombinant human myeloperoxidase (Homo sapiens, UniProt P05164); test: Myeloperoxidase assay with recombinant enzyme; type: biochemical; conditions: 0.0125 μg/ml enzyme, 20 μM calpeptin
T1 construct: purchased R&D
T1 sequence (P05164 49-745): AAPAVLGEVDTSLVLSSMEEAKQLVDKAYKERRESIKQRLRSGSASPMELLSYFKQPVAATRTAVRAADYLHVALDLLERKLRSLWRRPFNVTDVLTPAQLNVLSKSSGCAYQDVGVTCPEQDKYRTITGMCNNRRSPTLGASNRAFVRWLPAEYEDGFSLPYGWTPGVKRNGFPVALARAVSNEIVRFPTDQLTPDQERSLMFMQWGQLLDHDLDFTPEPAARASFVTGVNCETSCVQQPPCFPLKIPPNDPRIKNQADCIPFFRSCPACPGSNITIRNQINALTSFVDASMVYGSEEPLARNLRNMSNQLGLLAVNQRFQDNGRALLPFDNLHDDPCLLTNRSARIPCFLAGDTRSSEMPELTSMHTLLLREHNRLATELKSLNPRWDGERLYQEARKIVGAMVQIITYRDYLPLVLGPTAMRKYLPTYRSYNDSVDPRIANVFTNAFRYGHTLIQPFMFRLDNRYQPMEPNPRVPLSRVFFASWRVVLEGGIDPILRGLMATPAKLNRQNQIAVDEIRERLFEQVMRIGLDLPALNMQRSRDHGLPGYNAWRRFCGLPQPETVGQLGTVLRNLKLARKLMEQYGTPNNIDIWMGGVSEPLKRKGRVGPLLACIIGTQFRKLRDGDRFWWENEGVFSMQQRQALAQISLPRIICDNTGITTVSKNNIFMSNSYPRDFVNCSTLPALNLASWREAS

[4] = test system: PMN recruitment into the lung; test: Neonatal mouse model of intranasal P. aeruginosa PAO1 infection; type: in vivo
Procedure: Seven day old C57BL/6 wild type or tlr2^−/− mice (Jackson Laboratories) were intranasally inoculated with 10 μl PAO1 (10^8 CFU) (Tang et al, 1996). Control mice received 10 μl of PBS. Mice were pretreated with 20 mg/kg calpeptin or DMSO in PBS by intraperitoneal (i.p.) route 16 h and 2 h before intranasal inoculation and a third dose was administered by i.p. route 30 min post infection. Lungs were harvested 4 h after infection and cell suspensions used for PMN detection and immunoblotting. For neutrophil detection, lung cell suspensions were double stained with phycoerythrin (PE)-labeled anti-CD45 (to detect leukocytes) and fluorescein isothiocyanate (FITC)-labeled anti-Ly6G antibodies (to detect neutrophils) (BD Pharmingen) and analyzed by flow cytometry with a FACSCalibur using Cell Quest software (Becton Dickinson) (Gomez et al, 2004). Irrelevant, isotype-matched antibodies were used as a control. Cells were gated on the basis of their forward scatter and side scatter profile and analyzed for double expression of CD45 and Ly6G. Immunoblots were performed on 10 μg of protein obtained by lysing lung cells in OGP buffer as described herein for 1HAEo-cells. Mice protocol number AAAA5999 was approved by the Institutional Animal Care and Use Committee at Columbia University.

[5] = test system: PMN recruitment into the lung and airway lumen; test: Adult C57BL/6 mouse P. aeruginosa infection with bronchoalveolar lavage; type: in vivo; conditions: adult C57BL/6, i.p. calpeptin, 2 hr infection, versus vehicle
Procedure: To test the effects of calpain inhibition on the transmigration of PMNs into P. aeruginosa-infected airways, bronchoalveolar lavage (BAL) experiments were performed on adult C57BL/6 mice. Mice were treated with i.p. calpeptin or vehicle and intranasally infected with P. aeruginosa for 2 hr. PMNs from BAL or whole-lung suspension were quantified by flow cytometry. Compared to vehicle-treated controls, calpeptin-treated mice had 37% fewer PMNs recruited into the whole lung and 90% fewer into the airway lumen, indicating a more pronounced effect on the epithelial junctions (FIG. 8D). […] Thus, recruitment of PMNs into the murine lung and airway lumen in response to P. aeruginosa is facilitated by calpain activity and its effects on junctional proteins at the mucosal surface.

[6] = molecular target: PMN myeloperoxidase (Homo sapiens, UniProt P05164); test: Myeloperoxidase activity of PMNs; conditions: 10^4 PMNs, 20 μM calpeptin

CCCC[C@@H](C=O)NC(=O)[C@H](CC(C)C)NC(=O)OCc1ccccc1 [calpeptin, Z-Leu-Nle-CHO]
Heat killed P. aeruginosa PAO1 induced PMN transmigration ([1]; p<0.001): inhibited
P3C-induced PMN transmigration ([1]; p<0.05): inhibited
Migration of PMNs across a porous Transwell (without epithelial cells) [2]: no effect; also recorded: not affected
Migration of PMNs across a porous Transwell (without epithelial cells) ([2]; listed as Calpeptin): did not directly inhibit
Myeloperoxidase activity of recombinant human myeloperoxidase [3]: nor did calpeptin inhibit; also recorded: not inhibited
Fewer PMNs recruited into the lung ([4]; 7-day old mice, i.p. calpeptin, 4 hours following intranasal P. aeruginosa, versus vehicle-treated, p<0.05): 31%
Occludin and E-cadherin cleavage products in whole lung lysates ([4]; infected wild type mice, i.p. calpeptin versus vehicle): substantially decreased
PMN recruitment in tlr2−/− animals ([4]; tlr2−/− pups, calpain inhibition): not further diminished
Fewer PMNs recruited into the airway lumen (BAL) [5]: 90%
Fewer PMNs recruited into the whole lung [5]: 37%
Myeloperoxidase activity / production by PMNs [6]: not inhibited
